Assay results as given in paper PMC5215849 (Antiviral research, 2016).
Converted amounts (≈) assume the structure as drawn. Where two headings read alike, the source gives them in different places.

Assays:
[1] = tested on: ZIKV PRVABC-59; experiment: CPE reduction assay, ZIKV Puerto Rican PRVABC-59; format: cell-based; details: Zika virus
[2] = tested on: ZIKV P 6-740; experiment: CPE reduction assay, ZIKV Malaysian P 6-740; format: cell-based; details: Zika virus
[3] = tested on: ZIKV MR-766; experiment: CPE reduction assay, ZIKV Ugandan MR-766; format: cell-based; details: Zika virus
[4] = tested on: ZIKV; experiment: Virus yield reduction concentration-response; format: cell-based, Zika virus; details: single test
[5] = tested on: ZIKV (P 6-740); format: in vivo, AG129 mice; details: for Mean weight change from days 7 to 13: vehicle −3.1 ± 2.4 g, p<0.001
[6] = tested on: ZIKV Malaysian P 6-740; experiment: Virus yield reduction
[7] = tested on: ZIKV PRVABC-59; experiment: Virus yield reduction; details: Zika virus
[8] = tested on: ZIKV (P 6-740); experiment: Re-challenge of surviving BCX4430-treated AG129 mice with ZIKV; format: in vivo; details: BCX4430-treated mice (300 mg/kg/d) that survived initial ZIKV challenge
[9] = tested on: ZIKV (P 6-740); format: in vivo, AG129 mice
[10] = tested on: ZIKV MR-766; experiment: Virus yield reduction; details: Zika virus
[11] = tested on: ZIKV P 6-740; experiment: Virus yield reduction; details: Zika virus
[12] = Huh-7, read-out: CPE red. assay EC50
[13] = RD, read-out: CPE red. assay EC50
[14] = Vero 76, read-out: CPE red. assay EC50
[15] = Huh-7, read-out: VYR assay EC90
[16] = Vero 76, read-out: VYR assay EC90
[17] = 300 mg/kg/d bid for 7 days beginning 3 dpi

SMILES	EC50 [1, 12] [µg/mL]	EC50 [1, 13] [µg/mL]	EC50 [1, 14] [µg/mL]	EC50 [2, 12] [µg/mL]	EC50 [3, 12] [µg/mL]	EC50 [3, 13] [µg/mL]	EC50 [3, 14] [µg/mL]	selectivity ratio ([6]; African green monkey)	selectivity ratio ([6]; human)	EC90 [7, 15] [µg/mL]	EC90 ([7]; RD, read-out: VYR assay EC90) [µg/mL]	EC90 [7, 16] [µg/mL]	also measured
NC(=O)c1ncn([C@@H]2O[C@H](CO)[C@@H](O)[C@H]2O)n1 [Ribavirin, reference compound]	3.8 ± 1.6 (≈ 15.6 µM)	10 ± 6 (≈ 40.9 µM)	23 ± 16.8 (≈ 94.2 µM)	7.2 ± 2.8 (≈ 29.5 µM)	8.9 ± 7.9 (≈ 36.4 µM)	9.3 ± 5.2 (≈ 38.1 µM)	85 ± 77.9 (≈ 348 µM)	1.6	24.5	10.4 ± 0.8 (≈ 42.6 µM)	46.3 ± 8.6 (≈ 190 µM)	281 ± 108 (≈ 1150 µM)	Activity in virus yield reduction assay ([4]; Vero76 cells (Figure 1A)): not active; Activity in virus yield reduction assay ([4]; human cell lines Huh-7 and RD (Figures 1B and C)): confirmed the antiviral activity; Viral RNA level in pooled serum on day 5 (qRT-PCR) ([5]; ribavirin i.p. bid 75 or 50 mg/kg/d): did not improve viral RNA levels; Outcome (survival) ([5]; ribavirin i.p. bid 75 or 50 mg/kg/d for 8 days): did not improve outcomes; Protection against weight loss ([5]; ribavirin i.p. bid 75 or 50 mg/kg/d, days 7 to 13): did not protect against weight loss
Nc1ncnc2c([C@@H]3N[C@H](CO)[C@@H](O)[C@H]3O)c[nH]c12 [BCX4430]	4.7 ± 0.6 (≈ 17.7 µM)	4.7 ± 2.2 (≈ 17.7 µM)	3.8 ± 2.5 (≈ 14.3 µM)	5.5 ± 0.1 (≈ 20.7 µM)	5.7 ± 0.9 (≈ 21.5 µM)	4.4 ± 1.3 (≈ 16.6 µM)	11.7 ± 4.7 (≈ 44.1 µM)	7.3	20.5	6.7 ± 1.2 (≈ 25.3 µM)	10 ± 2.2 (≈ 37.7 µM)	18.2 ± 2.7 (≈ 68.6 µM)	EC50 [2, 14]: 11.5 ± 4.4 µg/mL (≈ 43.4 µM); Mean weight change from days 7 to 13 ([5]; 150 mg/kg/d): -0.3 ± 0.8 g; Weight between 0 and 19 dpi ([5]; 300 mg/kg/d, similar to sham infected animals treated with the same dose): did not decline substantially; Mean weight change from days 7 to 13 ([5]; 300 mg/kg/d): +0.2 ± 0.5 g; Viral RNA level in pooled serum on day 5 (qRT-PCR) ([5]; either dose of BCX4430 (300 or 150 mg/kg/d)): significant reduction in viremia; Neutralizing antibody titers in serum just prior to re-challenge [8]: 4-5 log10 PRNT50; Protection from weight loss between 7 and 13 dpi ([9]; 300 mg/kg/d beginning 1, 3 or 5 dpi, vs vehicle p<0.001): Significant protection from weight loss; Viral RNA levels in serum on 5 dpi ([9]; 300 mg/kg/d beginning 1 or 3 dpi): not significantly decreased; Median survival ([9]; 300 mg/kg/d bid for 7 days beginning 1 dpi): > 28 days; Median survival [9, 17]: 19.5 days; Survivors [9, 17]: only a single mouse survived; Median survival ([9]; 300 mg/kg/d bid for 7 days beginning 5 dpi): 18 days; Median survival ([9]; 300 mg/kg/d bid for 7 days beginning 7 dpi): 17 days; EC90 [10, 15]: 6.4 µg/mL (≈ 24.1 µM); EC90 ([10]; RD, read-out: VYR assay EC90): 5.4 ± 1.1 µg/mL (≈ 20.4 µM); EC90 [10, 16]: 8.7 µg/mL (≈ 32.8 µM); EC90 [11, 15]: 4.9 ± 0.9 µg/mL (≈ 18.5 µM); EC90 [11, 16]: 13.8 ± 3.7 µg/mL (≈ 52 µM)
